Values belong to the compound of their own block, whether it stands above or below them. Active and inactive are the calls of the source. No cut-off for these calls is given here.
Legend:
[1] = Drug uptake in striatum of chronic unpredictable mild stress C57BL/6 mouse model by PET imaging analysis; type: ADME, tissue-based; conditions: in vivo
[2] = Drug uptake in kidney of chronic unpredictable mild stress C57BL/6 mouse model by PET imaging analysis; type: ADME, tissue-based; conditions: in vivo
[3] = Drug uptake in spleen of chronic unpredictable mild stress C57BL/6 mouse model by PET imaging analysis; type: ADME, tissue-based; conditions: in vivo
[4] = Drug uptake in lung of chronic unpredictable mild stress C57BL/6 mouse model by PET imaging analysis; type: ADME, tissue-based; conditions: in vivo
[5] = Drug uptake in liver of chronic unpredictable mild stress C57BL/6 mouse model by PET imaging analysis; type: ADME, tissue-based; conditions: in vivo
[6] = Drug uptake in hypothalamus of chronic unpredictable mild stress C57BL/6 mouse model by PET imaging analysis; type: ADME, tissue-based; conditions: in vivo
[7] = Drug uptake in heart of chronic unpredictable mild stress C57BL/6 mouse model by PET imaging analysis; type: ADME, tissue-based; conditions: in vivo
[8] = Drug uptake in hippocampus of chronic unpredictable mild stress C57BL/6 mouse model by PET imaging analysis; type: ADME, tissue-based; conditions: in vivo
[9] = Half life in C57BL/6 mouse at 20 mg/kg, iv by LC-MS/MS analysis; type: ADME, organism-based; conditions: in vivo
[10] = AUC (0 to infinity) in C57BL/6 mouse at 20 mg/kg, ip by LC-MS/MS analysis; type: ADME, organism-based; conditions: in vivo
[11] = Drug concentration in plasma of C57BL/6 mouse at 1 mg/kg, ip measured for 4 hrs by LC-MS/MS analysis; type: ADME, organism-based
Mus musculus [12] = assay: Antidepressant activity in chronic unpredictable mild stress C57BL/6 mouse model assessed as reduction in immobility time at 20 mg/kg, ip qd for 21 days by tail suspension test; type: functional, organism-based; conditions: time 21.0 day
[13] = Toxicity in chronic unpredictable mild stress C57BL/6 mouse model assessed as animal death at 20 mg/kg, ip qd for 21 days; type: organism-based; conditions: in vivo, 504 h, time 21 day
[14] = […] bioavailability in C57BL/6 mouse at 20 mg/kg by LC-MS/MS analysis; type: ADME, organism-based; conditions: in vivo
[15] = Cmax in C57BL/6 mouse at 20 mg/kg, ip by LC-MS/MS analysis; type: ADME, organism-based; conditions: in vivo
[16] = Cmax in C57BL/6 mouse at 20 mg/kg, iv by LC-MS/MS analysis; type: ADME, organism-based; conditions: in vivo
[17] = Toxicity in chronic unpredictable mild stress C57BL/6 mouse model assessed as histomorphological changes at 20 mg/kg, ip qd for 21 days; type: organism-based; conditions: in vivo, 504 h, time 21 day
[18] = Toxicity in chronic unpredictable mild stress C57BL/6 mouse model assessed as abnormality in organs at 20 mg/kg, ip qd for 21 days by H and E staining based analysis; type: organism-based; conditions: in vivo, 504 h, time 21 day
[19] = Half life in C57BL/6 mouse at 20 mg/kg, ip by LC-MS/MS analysis; type: ADME, organism-based; conditions: in vivo
Mus musculus [20] = assay: Antidepressant activity in chronic unpredictable mild stress C57BL/6 mouse model assessed as shorter feeding latency to eat at 20 mg/kg, ip qd for 21 days by novelty-suppressed feeding test; type: functional, organism-based; conditions: time 21.0 day
Mus musculus [21] = species: Mus musculus; assay: Upregulation of tubulin acetylation in brain of chronic unpredictable mild stress C57BL/6 mouse model by IHC analysis; type: functional, organism-based
[22] = Toxicity in chronic unpredictable mild stress C57BL/6 mouse model assessed as damage in organs at 20 mg/kg, ip qd for 21 days by H and E staining based analysis; type: organism-based; conditions: in vivo, 504 h, time 21 day
[23] = Drug concentration in brain of C57BL/6 mouse at 1 mg/kg, ip measured for 0.5 hrs by LC-MS/MS analysis; type: ADME, organism-based; conditions: read-out: Ct
[24] = Ratio of drug concentration in brain to plasma of C57BL/6 mouse at 1 mg/kg, ip measured for 4 hrs by LC-MS/MS analysis; type: ADME, organism-based; conditions: read-out: BPR
Mus musculus [25] = assay: Antidepressant activity in chronic unpredictable mild stress C57BL/6 mouse model assessed as longer duration spent in central area of open field at 20 mg/kg, ip qd for 21 days by open field test; type: functional, organism-based; conditions: time 21.0 day
[26] = Ratio of drug concentration in brain to plasma of C57BL/6 mouse at 1 mg/kg, ip measured for 0.5 hrs by LC-MS/MS analysis; type: ADME, organism-based; conditions: read-out: BPR
[27] = AUC (0 to infinity) in C57BL/6 mouse at 20 mg/kg, iv by LC-MS/MS analysis; type: ADME, organism-based; conditions: in vivo
[28] = Ratio of drug concentration in brain to plasma of C57BL/6 mouse at 1 mg/kg, ip measured for 1 hr by LC-MS/MS analysis; type: ADME, organism-based; conditions: read-out: BPR
[29] = Drug concentration in plasma of C57BL/6 mouse at 1 mg/kg, ip measured for 1 hr by LC-MS/MS analysis; type: ADME, organism-based
[30] = Tmax in C57BL/6 mouse at 20 mg/kg, ip by LC-MS/MS analysis; type: ADME, organism-based; conditions: in vivo
[31] = Drug concentration in plasma of C57BL/6 mouse at 1 mg/kg, ip measured for 0.5 hrs by LC-MS/MS analysis; type: ADME, organism-based
[32] = target: T1, Protein deacetylase HDAC6 (Mus musculus) (UniProt Q9Z2V5); assay: In vivo inhibition of HDAC6 in brain of chronic unpredictable mild stress C57BL/6 mouse model by IHC analysis; type: functional, organism-based
T1 sequence (whole entry): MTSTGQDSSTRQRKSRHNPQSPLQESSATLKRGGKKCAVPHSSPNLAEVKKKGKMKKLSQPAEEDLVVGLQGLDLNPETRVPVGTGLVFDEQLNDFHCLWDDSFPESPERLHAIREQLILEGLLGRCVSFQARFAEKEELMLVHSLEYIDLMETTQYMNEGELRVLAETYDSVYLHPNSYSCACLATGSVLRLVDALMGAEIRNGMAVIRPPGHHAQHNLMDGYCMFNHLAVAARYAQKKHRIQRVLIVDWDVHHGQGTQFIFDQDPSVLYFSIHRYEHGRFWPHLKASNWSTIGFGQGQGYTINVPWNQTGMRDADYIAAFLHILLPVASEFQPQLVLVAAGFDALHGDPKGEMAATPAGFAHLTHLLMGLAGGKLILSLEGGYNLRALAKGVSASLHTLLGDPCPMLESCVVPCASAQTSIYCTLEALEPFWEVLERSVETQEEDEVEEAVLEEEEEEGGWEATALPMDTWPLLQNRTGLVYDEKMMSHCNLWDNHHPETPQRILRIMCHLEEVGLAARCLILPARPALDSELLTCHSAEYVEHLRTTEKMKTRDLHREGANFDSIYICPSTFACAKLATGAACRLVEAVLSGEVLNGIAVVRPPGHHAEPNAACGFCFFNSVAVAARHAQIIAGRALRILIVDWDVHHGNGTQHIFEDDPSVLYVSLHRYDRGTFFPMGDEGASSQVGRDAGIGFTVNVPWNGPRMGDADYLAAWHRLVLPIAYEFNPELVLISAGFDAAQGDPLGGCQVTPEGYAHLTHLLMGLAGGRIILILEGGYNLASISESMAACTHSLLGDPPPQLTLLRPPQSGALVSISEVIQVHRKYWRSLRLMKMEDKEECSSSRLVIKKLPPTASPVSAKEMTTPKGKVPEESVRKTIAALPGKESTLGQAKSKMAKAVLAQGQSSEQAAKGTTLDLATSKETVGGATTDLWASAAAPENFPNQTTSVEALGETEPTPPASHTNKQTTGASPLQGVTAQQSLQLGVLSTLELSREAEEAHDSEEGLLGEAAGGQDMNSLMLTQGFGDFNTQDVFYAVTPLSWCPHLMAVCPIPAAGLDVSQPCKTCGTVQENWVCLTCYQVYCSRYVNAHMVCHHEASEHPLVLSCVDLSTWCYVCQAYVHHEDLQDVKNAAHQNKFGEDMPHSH

[33] = Drug concentration in brain of C57BL/6 mouse at 1 mg/kg, ip measured for 1 hr by LC-MS/MS analysis; type: ADME, organism-based; conditions: read-out: Ct
[34] = MRT (0 to infinity) in C57BL/6 mouse at 20 mg/kg, iv by LC-MS/MS analysis; type: ADME, organism-based; conditions: in vivo
[35] = Drug concentration in brain of C57BL/6 mouse at 1 mg/kg, ip measured for 4 hrs by LC-MS/MS analysis; type: ADME, organism-based; conditions: read-out: Ct
[36] = MRT (0 to infinity) in C57BL/6 mouse at 20 mg/kg, ip by LC-MS/MS analysis; type: ADME, organism-based; conditions: in vivo
Mus musculus [37] = assay: Antidepressant activity in chronic unpredictable mild stress C57BL/6 mouse model assessed as longer duration spent in central area at 20 mg/kg, ip qd for 21 days by open field test; type: functional, organism-based; conditions: time 21.0 day

- Drug uptake [1]: Active
- Drug uptake [2]: Active
- Drug uptake [3]: Active
- Drug uptake [4]: Active
- Drug uptake [5]: Active
- Drug uptake [6]: Active
- Drug uptake [7]: Active
- Drug uptake [8]: Active
Structure (SMILES): CN(Cc1ccc(C(=O)NO)cc1[18F])CC12CC3CC(CC(C3)C1)C2

Structure (SMILES): Cc1ccc2c(n1)N(Cc1ccc(C(=O)NO)cc1F)CCC2
- half-life [9]: 33 min
- AUC(0-inf) [10]: 522 ng·h/mL
- concentration at 4 h [11]: 0.21 ng/mL
- Activity (Mus musculus [12]): Active
- Activity [13]: Non-toxic
- bioavailability [14]: 47.7%
- Cmax [15]: 1510 ng/mL
- Cmax [16]: 3600 ng/mL
- Activity [17]: Non-toxic
- Activity [18]: Non-toxic
- half-life [19]: 54.6 min
- Activity (Mus musculus [20]): Active
- Activity (Mus musculus [21]): Active
- Activity [22]: Non-toxic
- concentration at 0.5 h [23]: 26.5 ng/mL
- Kp at 4 h [24]: 2.1
- Activity (Mus musculus [25]): Active
- Kp at 0.5 h [26]: 7.9
- AUC(0-inf) [27]: 1090 ng·h/mL
- Kp at 1 h [28]: 3.9
- concentration at 1 h [29]: 2.6 ng/mL
- Tmax [30]: 4.98 min
- concentration at 0.5 h [31]: 3.3 ng/mL
- inhibition [32]: Active
- concentration at 1 h [33]: 10.3 ng/mL
- MRT inf [34]: 17.4 min
- concentration at 4 h [35]: 0.42 ng/mL
- MRT inf [36]: 24 min
- Activity (Mus musculus [37]): Active
